Tests used:
Format in all cases: cell-based
[1] = tested on: A431 cells (amplification of the wild-type EGFR gene), phospho-ERK Thr202/Tyr204; assay: Cellular phosphorylation assay, pERK (phospho-ERK Thr202/Tyr204 AlphaLISA) in A431; conditions: Homo sapiens, A-431, compound incubated for 5 hours
Description: (§1) Besides Ba/F3s, two commercially available cell lines were also used. NCI-H1781 is a HER2 exon20 insertion cell line bearing HER2-A775_G776insV-G776C. A431 bears amplification of the wild-type EGFR gene.
(§2) Ba/F3 cells were plated at 50,000 cells/well (40 μL), or NCI-H1781 cells or A431 cells were plated at 12,500 cells/well (40 μL), in a 384-well plate for 1 day. Test compounds (40 nL) were then added in a 3-fold dilution series using the TECAN EV0200 liquid handler and incubated for 5 hours. Only for pEGFR analysis in A431, the cells were briefly stimulated with EGF (30 ng/mL) for 15 minutes. Media were removed using Apricot Designs. Phosphoproteins were analyzed using the phospho-EGFR Tyr1068 AlphaLISA kit (“pEGFR”; PerkinElmer #ALSU-PEGFR-B10K;) phospho-ERK Thr202/Tyr204 AlphaLISA kit (“pERK”; PerkinElmer #ALSU-PERK-A10K) or the phospho-ErbB2 Tyr1221/1222 AlphaLISA kit (“pHER2”; PerkinElmer #ALSU-PEB2-A10K;) according to the manufacturer's instructions. Briefly, cells were lysed with lysis buffer (10 μL) containing protease-inhibitor and phosphatase-inhibitor cocktails. The lysates were transferred into a new optical plate, incubated with the acceptor mix (5 μL) for 1.5-2 hours at room temperature in darkness, and then mixed with the donor mix (5 μL) overnight in darkness. Fluorescence was measured on a plate reader using the appropriate AlphaLISA settings. Half-maximal inhibitory concentration (IC50) was calculated from percent inhibition and inhibitor concentration using four-parameter logistic regression. […]

[2] = target: T1, wild-type EGFR (A431 cells) (Homo sapiens, UniProt P00533); assay: Cellular phosphorylation assay, pEGFR (phospho-EGFR Tyr1068 AlphaLISA) in A431; conditions: compound incubated for 5 hours, EGF (30 ng/mL) for 15 minutes
T1 construct: A431 bears amplification of the wild-type EGFR gene; endogenous in cells; host or cells: A431
T1 sequence (P00533 25-1210): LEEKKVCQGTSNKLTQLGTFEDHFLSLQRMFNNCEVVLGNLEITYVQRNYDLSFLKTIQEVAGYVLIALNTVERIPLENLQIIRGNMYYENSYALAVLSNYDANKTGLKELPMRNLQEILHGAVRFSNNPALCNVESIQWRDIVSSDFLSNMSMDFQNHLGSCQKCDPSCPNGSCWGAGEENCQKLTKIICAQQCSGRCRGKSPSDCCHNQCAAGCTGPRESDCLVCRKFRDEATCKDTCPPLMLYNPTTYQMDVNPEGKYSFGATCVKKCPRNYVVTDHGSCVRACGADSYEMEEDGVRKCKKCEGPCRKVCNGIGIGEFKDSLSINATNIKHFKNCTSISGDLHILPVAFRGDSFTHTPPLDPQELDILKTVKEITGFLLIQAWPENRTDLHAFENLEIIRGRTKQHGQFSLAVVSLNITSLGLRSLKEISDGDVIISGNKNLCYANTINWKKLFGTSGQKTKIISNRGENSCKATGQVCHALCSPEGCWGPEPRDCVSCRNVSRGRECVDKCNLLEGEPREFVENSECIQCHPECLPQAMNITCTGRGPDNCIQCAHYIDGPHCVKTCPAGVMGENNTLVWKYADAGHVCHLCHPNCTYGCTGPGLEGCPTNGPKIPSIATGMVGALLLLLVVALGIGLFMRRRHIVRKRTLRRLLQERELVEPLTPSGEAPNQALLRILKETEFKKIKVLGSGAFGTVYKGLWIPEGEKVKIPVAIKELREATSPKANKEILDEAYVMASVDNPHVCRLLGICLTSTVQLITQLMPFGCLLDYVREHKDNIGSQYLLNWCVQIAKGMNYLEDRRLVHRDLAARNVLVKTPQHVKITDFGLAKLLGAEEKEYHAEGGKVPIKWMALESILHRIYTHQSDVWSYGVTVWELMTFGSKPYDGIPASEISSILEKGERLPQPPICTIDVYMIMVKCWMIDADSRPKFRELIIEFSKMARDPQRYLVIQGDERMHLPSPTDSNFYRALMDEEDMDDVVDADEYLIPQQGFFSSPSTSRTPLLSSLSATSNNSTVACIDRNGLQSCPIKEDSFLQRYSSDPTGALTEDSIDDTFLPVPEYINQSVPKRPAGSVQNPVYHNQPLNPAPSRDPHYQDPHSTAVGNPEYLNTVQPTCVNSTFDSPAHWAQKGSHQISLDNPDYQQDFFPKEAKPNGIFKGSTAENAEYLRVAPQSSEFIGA
Description: as §1, §2

[3] = target: Ba/F3 HER2-YVMA cells (HER2-A775_G776insYVMA) (Homo sapiens, UniProt P04626, DUP772-775, cells depend on it); assay: Cell proliferation assay (CellTiter-Glo), Ba/F3 HER2-YVMA; conditions: read-out: Ba/F3 HER2-YVMA cell proliferation IC50
Sequence of Ba/F3 HER2-YVMA cells (HER2-A775_G776insYVMA) (P04626 with tags, fused parts or gaps DUP772-775): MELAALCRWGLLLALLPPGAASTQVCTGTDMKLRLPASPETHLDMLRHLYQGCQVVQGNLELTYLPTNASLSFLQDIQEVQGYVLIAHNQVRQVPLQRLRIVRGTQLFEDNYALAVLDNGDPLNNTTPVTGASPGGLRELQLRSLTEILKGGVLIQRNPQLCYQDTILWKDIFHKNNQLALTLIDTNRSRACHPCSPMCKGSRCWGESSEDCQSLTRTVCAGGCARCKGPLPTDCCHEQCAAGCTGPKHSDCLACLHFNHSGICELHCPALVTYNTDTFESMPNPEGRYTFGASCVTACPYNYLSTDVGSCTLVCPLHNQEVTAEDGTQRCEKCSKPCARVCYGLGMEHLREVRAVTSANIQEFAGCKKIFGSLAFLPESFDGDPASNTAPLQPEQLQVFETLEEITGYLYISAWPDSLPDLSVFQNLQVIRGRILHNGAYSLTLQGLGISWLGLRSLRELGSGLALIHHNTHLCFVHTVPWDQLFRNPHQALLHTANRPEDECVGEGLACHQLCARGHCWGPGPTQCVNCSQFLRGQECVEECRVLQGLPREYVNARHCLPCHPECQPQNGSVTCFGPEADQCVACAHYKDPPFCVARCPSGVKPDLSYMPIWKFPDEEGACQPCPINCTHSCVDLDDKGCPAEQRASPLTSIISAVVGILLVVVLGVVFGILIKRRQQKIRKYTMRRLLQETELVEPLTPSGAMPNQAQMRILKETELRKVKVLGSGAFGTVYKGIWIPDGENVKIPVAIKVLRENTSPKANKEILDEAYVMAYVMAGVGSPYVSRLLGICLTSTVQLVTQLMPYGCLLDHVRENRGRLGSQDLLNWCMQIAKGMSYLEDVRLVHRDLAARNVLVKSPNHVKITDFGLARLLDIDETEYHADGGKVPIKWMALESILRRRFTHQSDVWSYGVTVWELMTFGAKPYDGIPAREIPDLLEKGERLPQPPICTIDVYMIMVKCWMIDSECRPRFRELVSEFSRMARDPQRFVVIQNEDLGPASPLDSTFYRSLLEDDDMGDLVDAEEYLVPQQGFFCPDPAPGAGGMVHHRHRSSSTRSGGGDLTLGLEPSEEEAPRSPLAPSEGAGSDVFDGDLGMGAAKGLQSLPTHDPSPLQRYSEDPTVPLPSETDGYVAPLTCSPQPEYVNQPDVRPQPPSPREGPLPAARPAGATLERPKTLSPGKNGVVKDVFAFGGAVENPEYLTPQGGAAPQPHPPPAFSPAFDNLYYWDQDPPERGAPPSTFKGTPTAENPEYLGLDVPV
Description: The gene encoding HER2-A775_G776insYVMA (“HER2-YVMA”) was synthesized at GeneRay, cloned into the retroviral construct pMSCV-puro (Biovector), and packaged into retroviral particles. The virus was used to infect Ba/F3 cells (RIKEN) at multiplicity of infection=1 or 10 for 1 day. Infected cells were rescued in media (RPMI-1640 with 10% fetal bovine serum and 1% streptomycin and penicillin) supplemented with mouse IL-3 (10 ng/mL) for 2 days, and stable cell lines were selected by IL-3 withdrawal and puromycin (0.8 μg/mL) for 7 days. Monoclones were selected by single-cell dilution in IL-3-free medium containing puromycin ([…]). Transformation of desired genes was confirmed by Sanger sequencing and western blot using the following antibody: HER2 (CST #2242).
Ba/F3 cells were plated at 1,000 cells/well (40 μL), or NCI-H1781 or A431 cells were plated at 2,000 cells/well (40 μL), in a 384-well plate for 1 day. Test compounds (40 nL) were then added in a 3-fold dilution series using the TECAN EV0200 liquid handler and incubated for 48 hours (“2 days”), 72 hours (“3 days”), or 48 hours followed by renewal of compound solutions and further incubation for 72 hours (“2 days/3 days”). The 72-hour assay was necessary for NCI-H1781 cells, which are slow-growing, and the resupply of fresh compounds on day 3 obviated the potential confounding effects arising from compound degradation in cell media over 72 hours. Plates were equilibrated at room temperature for 15 minutes followed by addition of 40 μL CellTiter-Glo reagent (Promega). Luminescence was measured on a plate reader. Half-maximal inhibitory concentration (IC50) was calculated from percent inhibition and inhibitor concentration using four-parameter logistic regression. […] In these cases, the regression curve was drawn only for the first inflexion to accurately measure on-target growth inhibitory effect.
Ba/F3, NCI-H1781, and A431 proliferation is driven by the oncogenes in the same way that cancer cell proliferation in humans is driven by the expression of equivalent oncogenes.

SMILES	IC50 [1] [nM]	IC50 [2] [nM]	GI50 [3] [nM]
C=CC(=O)N1CC=C(c2ccc3ncnc(Nc4ccc(Oc5ccn6nccc6c5)c(C)c4)c3n2)CC1 [Example 72]	100 to 500	< 100	< 100
C=CC(=O)N1CC=C(c2ncc3ncnc(Nc4ccc(Oc5cc(C)n6ncnc6c5)c(C)c4F)c3n2)C[C@@H]1C [Example 97]	500 to 1000		< 100
C=CC(=O)N1CC=C(c2ccc3ncnc(Nc4ccc(Oc5ccn6ncnc6c5)c(C)c4)c3c2F)CC1 [Example 30]		≥ 1000	100 to 500
C=CC(=O)N1CCN(c2ncc3ncnc(Nc4ccc(Oc5ccc6c(c5)ncn6C)c(C)c4F)c3n2)C[C@H]1C [Example 68]	100 to 500	500 to 1000	< 100
C=CC(=O)N1CC=C(c2ncc3ncnc(Nc4ccc(Oc5ccn6ncnc6c5)c(C)c4)c3n2)C[C@@H]1C [Example 95]	≥ 1000	≥ 1000	< 100
C=CC(=O)N1CCN(c2ncc3ncnc(Nc4ccc(Oc5ccc6c(c5)ncn6C)cc4F)c3n2)CC1 [Example 67]	500 to 1000	≥ 1000	< 100
C=CC(=O)N1CCN(c2ncc3ncnc(Nc4cc(C)c(Oc5ccn6ncnc6c5)cc4F)c3n2)CC1(C)C [Example 76]		≥ 1000	100 to 500
C=CC(=O)N1CCN(c2ncc3ncnc(Nc4ccc(Oc5ccn6ncnc6c5)c(C)c4F)c3n2)CC1(C)C [Example 77]		100 to 500	< 100
C=CC(=O)N1CCC2(C1)CN(c1ncc3ncnc(Nc4ccc(Oc5ccn6ncnc6c5)c(C)c4F)c3n1)C2 [Example 47]		≥ 1000	100 to 500
Cc1cc(Nc2ncnc3ccc(C4=CCN(C(=O)/C=C/C5CCCN5C)CC4)nc23)ccc1Oc1ccn2ncnc2c1 (stereo not drawn) [Example 25]	≥ 1000	≥ 1000	100 to 500
C=CC(=O)N1CCC(c2ncc3ncnc(Nc4ccc(Oc5ccn6ncnc6c5)c(C)c4)c3n2)=C[C@@H]1C [Example 94]	≥ 1000	500 to 1000	< 100
C=CC(=O)N1CCC(c2ncc3ncnc(Nc4ccc(Oc5cc(C)n6ncnc6c5)c(C)c4F)c3n2)=C[C@@H]1C [Example 96]	≥ 1000	≥ 1000	100 to 500
C=CC(=O)N1CC=C(c2ncc3ncnc(Nc4ccc(Oc5ccn6ncnc6c5)c(C)c4F)c3n2)CCC1 [Example 57]		100 to 500	< 100
C=CC(=O)N1C[C@@H]2CN(c3ncc4ncnc(Nc5ccc(Oc6ccn7ncnc7c6)c(C)c5F)c4n3)C[C@@H]2C1 [Example 46]		≥ 1000	100 to 500
C=CC(=O)N1C(C)CN(c2ccc3ncnc(Nc4ccc(Oc5ccn6ncnc6c5)c(C)c4)c3n2)CC1C (stereo not drawn) [Example 92]		≥ 1000	< 100
C=CC(=O)N1CCN(c2ncc3ncnc(Nc4ccc(Oc5ccn6ncnc6c5)c(C)c4F)c3n2)CC1 [Example 98]		500 to 1000	< 100
C=CC(=O)N1CCN(c2ncc3ncnc(Nc4ccc(Oc5ccn6ncnc6c5)c(C)c4F)c3n2)C[C@H]1C(F)F [Example 99]		< 100	< 100
C=CC(=O)N1CC=C(c2ncc3ncnc(Nc4ccc(Oc5ccn6ncnc6c5)c(C(F)F)c4F)c3n2)C[C@@H]1C [Example 61]	≥ 1000		100 to 500
C=C(F)C(=O)N1CCN(c2ccc3ncnc(Nc4ccc(Oc5ccn6ncnc6c5)c(C)c4)c3n2)CC1 [Example 24]		≥ 1000	500 to 1000
C=CC(=O)N1CCN(c2ccc3ncnc(Nc4ccc(Oc5ccn6ncnc6c5)c(C)c4F)c3c2F)CC1 [Example 93]		≥ 1000	< 100
C=CC(=O)N1CCC2(CCN(c3ncc4ncnc(Nc5ccc(Oc6ccn7ncnc7c6)c(C)c5F)c4n3)C2)C1 (stereo not drawn) [Example 48]		≥ 1000	100 to 500
C=CC(=O)N1CC=C(c2nc3c(Nc4ccc(Oc5ccn6ncnc6c5)c(C)c4)ncnc3cc2OC)CC1 [Example 66]		100 to 500	< 100

Reference: patent US12037346B2, “Amino-substituted heteroaryls for treating cancers with EGFR mutations” (Nuvalent, Inc., priority 2021, dated 2024)
